Patent US8952024B2, “Herbicidal pyrimidone derivatives” (E I du Pont de Nemours and Company, priority 2009, dated 2015)

Key:
Assay type in all cases: in vivo
corn (Zea mays) = assay: Test B pre-/postemergence plant response
Method in brief: (§1)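 Seeds sown in loam–sand blend were treated preemergence, and plants at 2–18 cm (1- to 4-leaf stage) in peat-based medium were treated postemergence; compounds were formulated in non-phytotoxic solvent with surfactant. After 13–15 days in greenhouse, response was visually rated against controls, 0 (no effect) to 100 (complete control).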

[1] = tested on: giant foxtail (Setaria faberii); assay: Test B pre-/postemergence plant response
Method in brief: as §1

[2] = tested on: goosegrass (Eleusine indica); assay: Test B pre-/postemergence plant response
Method in brief: as §1

[3] = tested on: green foxtail (Setaria viridis); assay: Test B pre-/postemergence plant response
Method in brief: as §1

[4] = tested on: johnsongrass (Sorghum halepense); assay: Test B pre-/postemergence plant response
Method in brief: as §1

[5] = tested on: lambsquarters (Chenopodium album); assay: Test B pre-/postemergence plant response
Method in brief: as §1

[6] = tested on: pigweed (Amaranthus retroflexus); assay: Test B pre-/postemergence plant response
Method in brief: as §1

soybean (Glycine max) = assay: Test B pre-/postemergence plant response
Method in brief: as §1

[7] = tested on: velvetleaf (Abutilon theophrasti); assay: Test B pre-/postemergence plant response
Method in brief: as §1

[8] = tested on: yellow nutsedge (Cyperus esculentus); assay: Test B pre-/postemergence plant response
Method in brief: as §1

[9] = tested on: canarygrass (Phalaris minor); assay: Test B postemergence plant response
Method in brief: (§2)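 Visual ratings from 0 (no effect) to 100 (complete control), made against controls 13–15 days after treatment, kept in a greenhouse. Compounds were applied postemergence to potted plants at the 1- to 4-leaf stage (2–18 cm).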

[10] = tested on: chickweed (Stellaria media); assay: Test B postemergence plant response
Method in brief: as §2

[11] = tested on: windgrass (Apera spica-venti); assay: Test B postemergence plant response; conditions: for Plant response rating, Windgrass: Postemergence
Method in brief: as §2

[12] = tested on: winter barley (Hordeum vulgare); assay: Test B postemergence plant response
Method in brief: as §2

[13] = 250 g ai/ha, Preemergence, 0 to 100 scale
[14] = Postemergence, 31 g ai/ha, scale 0 to 100 (0 no effect, 100 complete control)
[15] = Postemergence, 62 g ai/ha, scale 0 (no effect) to 100 (complete control), 13 to 15 days
[16] = Postemergence, 125 g ai/ha, visual rating after 13 to 15 days, scale 0 (no effect) to 100 (complete control)
[17] = Postemergence, 250 g ai/ha, scale 0 to 100
[18] = Preemergence, 31 g ai/ha, scale 0 to 100 (0 no effect, 100 complete control)
[19] = Preemergence, 62 g ai/ha, scale 0 to 100 (0 no effect, 100 complete control)
[20] = Preemergence, 125 g ai/ha, 0 to 100 scale
[21] = 62 g ai/ha, postemergence, 0 is no effect, 100 is complete control, 13 to 15 days
[22] = Postemergence, 125 g ai/ha, scale 0 to 100 (0 no effect, 100 complete control)
[23] = Postemergence, 250 g ai/ha, scale 0 to 100 (0 no effect, 100 complete control)
[24] = 31 g ai/ha, postemergence, scale 0 to 100, 0 is no effect, 100 is complete control

CCCCc1ncc(C(=O)C2=C(O)CCCC2=O)c(=O)n1-c1ccccc1 [Compound 42]
60: Plant response rating, Foxtail, Green [3, 16] | Plant response rating, Nutsedge, Yellow [8, 15] | Plant response rating, Chickweed [10, 14] | Plant response rating, Windgrass ([11]; 62 g ai/ha, scale 0 (no effect) to 100 (complete control), 13 to 15 days)
65: Plant response rating, Foxtail, Giant [1, 15] | Plant response rating, Foxtail, Green [3, 18] | Plant response rating, Foxtail, Green [3, 19] | Plant response rating, Johnsongrass [4, 13] | Johnsongrass plant response rating [4, 17]
40: Plant response rating, Johnsongrass [4, 16]
70: Plant response rating, Nutsedge, Yellow [8, 16] | Plant response rating, Chickweed [10, 15] | Plant response rating, Windgrass ([11]; 125 g ai/ha, visual rating after 13 to 15 days, scale 0 (no effect) to 100 (complete control))
75: Plant response rating, Foxtail, Giant [1, 16] | Plant response rating, Velvetleaf [7, 18] | Nutsedge, Yellow plant response rating [8, 20]
5: Barley plant response rating [12, 17]
0: Plant response rating, Corn (corn (Zea mays); [13]) | Plant response rating, Corn (corn (Zea mays); [14]) | Plant response rating, Corn (corn (Zea mays); [18]) | Plant response rating, Corn (corn (Zea mays); [19]) | Corn plant response rating (corn (Zea mays); [20]) | Plant response rating, Foxtail, Giant [1, 18] | Plant response rating, Foxtail, Giant [1, 19] | Plant response rating, Johnsongrass [4, 15] | Plant response rating, Johnsongrass [4, 18] | Plant response rating, Johnsongrass [4, 19] | Plant response rating, Soybean (soybean (Glycine max); [13]) | Plant response rating, Soybean (soybean (Glycine max); [18]) | Soybean plant response rating (soybean (Glycine max); [20]) | Plant response rating, Canarygrass [9, 14] | Plant response rating, Canarygrass [9, 15] | Plant response rating, Canarygrass [9, 16] | Canarygrass plant response rating [9, 17] | Plant response rating, Barley [12, 14] | Plant response rating, Barley [12, 15] | Plant response rating, Barley [12, 16]
95: Goosegrass plant response rating [2, 17] | Plant response rating, Lambsquarters [5, 15] | Plant response rating, Pigweed [6, 15] | Plant response rating, Soybean (soybean (Glycine max); [16]) | Plant response rating, Velvetleaf [7, 16] | Chickweed plant response rating [10, 17]
100: Plant response rating, Goosegrass [2, 13] | Goosegrass plant response rating [2, 20] | Plant response rating, Lambsquarters [5, 13] | Plant response rating, Lambsquarters [5, 16] | Lambsquarters plant response rating [5, 17] | Plant response rating, Lambsquarters [5, 18] | Plant response rating, Lambsquarters [5, 19] | Lambsquarters plant response rating [5, 20] | Plant response rating, Pigweed [6, 13] | Plant response rating, Pigweed [6, 16] | Plant response rating, Pigweed [6, 18] | Pigweed plant response rating [6, 20]
80: Plant response rating, Velvetleaf [7, 15] | Plant response rating, Chickweed [10, 16]
10: Plant response rating, Corn (corn (Zea mays); [15]) | Plant response rating, Foxtail, Giant [1, 13] | Foxtail, Giant plant response rating [1, 20] | Johnsongrass plant response rating [4, 20] | Plant response rating, Nutsedge, Yellow [8, 18]
55: Plant response rating, Foxtail, Green [3, 15]
50: Plant response rating, Goosegrass [2, 18] | Plant response rating, Foxtail, Green [3, 14]
90: Plant response rating, Goosegrass [2, 16] | Plant response rating, Soybean (soybean (Glycine max); [15]) | Plant response rating, Velvetleaf [7, 13]
20: Plant response rating, Corn (corn (Zea mays); [16])
85: Foxtail, Giant plant response rating [1, 17] | Plant response rating, Goosegrass [2, 15] | Plant response rating, Foxtail, Green [3, 13] | Foxtail, Green plant response rating [3, 17] | Foxtail, Green plant response rating [3, 20] | Velvetleaf plant response rating [7, 20] | Plant response rating, Nutsedge, Yellow [8, 13]
45: Corn plant response rating (corn (Zea mays); [17]) | Plant response rating, Foxtail, Giant [1, 14]

CCCn1c(-c2ccc(F)cc2)ncc(C(=O)C2=C(O)CCCC2=O)c1=O [Compound 102]
20: Plant response rating, Johnsongrass [4, 24] | Canarygrass plant response rating (0 to 100 scale) [9, 21]
5: Plant response rating, Canarygrass [9, 24]
65: Plant response rating, Corn (corn (Zea mays); [22]) | Nutsedge, Yellow plant response rating (0 to 100 scale) [8, 21]
70: Plant response rating, Corn (corn (Zea mays); [23]) | Plant response rating, Foxtail, Giant [1, 24] | Goosegrass plant response rating (0 to 100 scale) [2, 21] | Plant response rating, Pigweed [6, 24] | Pigweed plant response rating (0 to 100 scale) [6, 21]
0: Plant response rating, Barley [12, 24]
80: Plant response rating, Foxtail, Giant [1, 22] | Plant response rating, Goosegrass [2, 22] | Plant response rating, Foxtail, Green [3, 24] | Plant response rating, Nutsedge, Yellow [8, 23] | Chickweed plant response rating (0 to 100 scale) [10, 21]
60: Plant response rating, Johnsongrass [4, 22] | Plant response rating, Chickweed [10, 24] | Plant response rating, Windgrass ([11]; 125 g ai/ha, scale 0 to 100 (0 no effect, 100 complete control)) | Plant response rating, Barley [12, 23]
30: Plant response rating, Canarygrass [9, 22] | Plant response rating, Barley [12, 22]
98: Lambsquarters plant response rating (0 to 100 scale) [5, 21] | Plant response rating, Pigweed [6, 23]
55: Plant response rating, Goosegrass [2, 24]
10: Windgrass plant response rating (0 to 100 scale) [11, 21] | Barley plant response rating (0 to 100 scale) [12, 21]
25: Johnsongrass plant response rating (0 to 100 scale) [4, 21]
45: Plant response rating, Nutsedge, Yellow [8, 24]
100: Plant response rating, Lambsquarters [5, 22] | Plant response rating, Lambsquarters [5, 23] | Plant response rating, Soybean (soybean (Glycine max); [23]) | Velvetleaf plant response rating (0 to 100 scale) [7, 21] | Plant response rating, Velvetleaf [7, 22] | Plant response rating, Velvetleaf [7, 23] | Plant response rating, Chickweed [10, 23]
95: Plant response rating, Foxtail, Giant [1, 23] | Plant response rating, Foxtail, Green [3, 23] | Plant response rating, Lambsquarters [5, 24] | Plant response rating, Pigweed [6, 22] | Plant response rating, Soybean (soybean (Glycine max); [22]) | Plant response rating, Chickweed [10, 22]
75: Foxtail, Giant plant response rating (0 to 100 scale) [1, 21] | Plant response rating, Johnsongrass [4, 23] | Plant response rating, Nutsedge, Yellow [8, 22]
15: Corn plant response rating (0 to 100 scale) (corn (Zea mays); [21])
90: Plant response rating, Goosegrass [2, 23] | Foxtail, Green plant response rating (0 to 100 scale) [3, 21] | Plant response rating, Foxtail, Green [3, 22]
85: Soybean plant response rating (0 to 100 scale) (soybean (Glycine max); [21])
50: Plant response rating, Canarygrass [9, 23]
